Assay results taken from patent US20230093861A1, “RAPAMYCIN ANALOGS AS MTOR INHIBITORS” (Revolution Medicines, Inc., priority 2017, published 2023).
Where two headings read alike, the source gives them in different places.

Tests used:
P-P70S6K (T389) = experiment: Cell based AlphaLISA assay, inhibition of P-P70S6K (T389) (mTORC1 substrate phosphorylation) in MDA-MB-468 cells; conditions: Homo sapiens, 4 h, AlphaLISA, two to four hours at 37° C., read-out: pIC50 for Inhibition of mTORC1 and mTORC2 Substrate Phosphorylation, P-P70S6K-(T389) (converted)
In short: (§1)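 After treatment, cells were lysed in the kit's buffer once assay medium was withdrawn. Duplicate Alpha measurements tracked each phospho-epitope, and dose-response data were fitted to IC50 following normalization to control wells.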

P-4E-BP1 (T37/46) = experiment: Cell based AlphaLISA assay, inhibition of P-4E-BP1 (T37/46) (mTORC1 substrate phosphorylation) in MDA-MB-468 cells; conditions: Homo sapiens, AlphaLISA, two to four hours at 37° C., read-out: pIC50 for Inhibition of mTORC1 and mTORC2 Substrate Phosphorylation, P-4E-BP1-(T37/46) (converted)
In short: as §1

P-Akt (S473) = experiment: Cell based AlphaLISA assay, inhibition of P-Akt (S473) (mTORC2 substrate phosphorylation) in MDA-MB-468 cells; conditions: Homo sapiens, AlphaLISA, two to four hours at 37° C., read-out: pIC50 for Inhibition of mTORC1 and mTORC2 Substrate Phosphorylation, p-AKT 1/2/3 -(S473) (converted)
In short: as §1

| SMILES | IC50 (P-P70S6K (T389)) [nM] | IC50 (P-4E-BP1 (T37/46); MDA-MB-468, 4 h) [nM] | IC50 (P-Akt (S473); MDA-MB-468, 4 h) [nM] | IC50 (P-4E-BP1 (T37/46); 4 h) [nM] | IC50 (P-Akt (S473); 4 h) [nM] |
| --- | --- | --- | --- | --- | --- |
| CO[C@H]1C[C@@H]2CC[C@@H](C)[C@@](O)(O2)C(=O)C(=O)N2CCCC[C@H]2C(=O)O[C@H]([C@H](C)C[C@@H]2CC[C@H](n3cc(COC(=O)NCCOCCOCCOCCC(=O)NCCOCCOCCOCCC(=O)NCCCCn4nc(-c5cc6cc(O)ccc6[nH]5)c5c(N)ncnc54)nn3)[C@H](OC)C2)C/C(=N/OCc2ccccc2)[C@H](C)/C=C(\C)[C@@H](O)[C@@H](OC)C(=O)[C@H](C)C[C@H](C)/C=C/C=C/C=C/1C [Example 157] | > 1000 | > 1000 | > 1000 |  |  |
| CO[C@H]1C[C@@H]2CC[C@@H](C)[C@@](O)(O2)C(=O)C(=O)N2CCCC[C@H]2C(=O)O[C@H]([C@H](C)C[C@@H]2CC[C@@H](O)[C@H](OC)C2)C[C@@H](OC)[C@H](C)/C=C(\C)[C@@H](O)[C@@H](OC)C(=NOCc2cn(CCOCCOCCOCCOCCOCCNC(=O)CCC(=O)NCCCCn3nc(-c4ccc5oc(N)nc5c4)c4c(N)ncnc43)nn2)[C@H](C)C[C@H](C)/C=C/C=C/C=C/1C [Example 105] | 1 to 10 | 3.16 to 31.6 | 31.6 to 1000 |  |  |
| CO[C@H]1C[C@@H]2CC[C@@H](C)[C@@](O)(O2)C(=O)C(=O)N2CCCC[C@H]2C(=O)O[C@H]([C@H](C)C[C@@H]2CC[C@H](n3cc(COC(=O)NCCOCCOCCOCCC(=O)NCCOCCOCCOCCC(=O)NCCCCn4nc(-c5ccc6oc(N)nc6c5)c5c(N)ncnc54)nn3)[C@H](OC)C2)C/C(=N/OC(C)(C)C)[C@H](C)/C=C(\C)[C@@H](O)[C@@H](OC)C(=O)[C@H](C)C[C@H](C)/C=C/C=C/C=C/1C [Example 160] | 10 to 1000 | > 1000 | 31.6 to 1000 |  |  |
| COc1cccc2cc(-c3nc([C@H]4CC[C@H](C(=O)NCCOCCOCCNC(=O)CCOCCOCCOCCOCCn5cc(CCCCO[C@@H]6CC[C@@H](C[C@@H](C)[C@@H]7C[C@@H](OC)[C@H](C)/C=C(\C)[C@@H](O)[C@@H](OC)C(=O)[C@H](C)C[C@H](C)/C=C/C=C/C=C(\C)[C@@H](OC)C[C@@H]8CC[C@@H](C)[C@@](O)(O8)C(=O)C(=O)N8CCCC[C@H]8C(=O)O7)C[C@H]6OC)nn5)CC4)n4ncnc(N)c34)[nH]c12 [Example 188] | < 1 | < 3.16 | 31.6 to 1000 |  |  |
| CO[C@H]1C[C@@H]2CC[C@@H](C)[C@@](O)(O2)C(=O)C(=O)N2CCCC[C@H]2C(=O)O[C@H]([C@H](C)C[C@@H]2CC[C@@H](OCCCCc3cn(CCOCCOCCOCCOCCOCCOCCOCCOCCC(=O)NCCCCn4nc(-c5cnc6[nH]ccc6c5)c5c(N)ncnc54)nn3)[C@H](OC)C2)CC(=O)[C@H](C)/C=C(\C)[C@@H](O)[C@@H](OC)C(=O)[C@H](C)C[C@H](C)/C=C/C=C/C=C/1C [Example 69] | < 1 |  |  | < 3.16 | 3.16 to 31.6 |
| CO[C@H]1C[C@@H]2CC[C@@H](C)[C@@](O)(O2)C(=O)C(=O)N2CCCC[C@H]2C(=O)O[C@H]([C@H](C)C[C@@H]2CC[C@@H](OCCCCc3cn(CCOCCOCCOCCOCCNC(=O)CCCCC(=O)NCCCCn4nc(-c5ccc6oc(N)nc6c5)c5c(N)ncnc54)nn3)[C@H](OC)C2)CC(=O)[C@H](C)/C=C(\C)[C@@H](O)[C@@H](OC)C(=O)[C@H](C)C[C@H](C)/C=C/C=C/C=C/1C [Example 103] | < 1 | < 3.16 | 3.16 to 31.6 |  |  |
| CO[C@H]1C[C@@H]2CC[C@@H](C)[C@@](O)(O2)C(=O)C(=O)N2CCCC[C@H]2C(=O)O[C@H]([C@H](C)C[C@@H]2CC[C@H](n3cc(-c4cccc(C(=O)NCCOCCOCCOCCC(=O)NCCOCCOCCC(=O)NCCCCn5nc(-c6ccc7oc(N)nc7c6)c6c(N)ncnc65)c4)nn3)[C@H](OC)C2)CC(=O)[C@H](C)/C=C(\C)[C@@H](O)[C@@H](OC)C(=O)[C@H](C)C[C@H](C)/C=C/C=C/C=C/1C [Example 136] | 1 to 10 | 3.16 to 31.6 | 31.6 to 1000 |  |  |
| CO[C@H]1C[C@@H]2CC[C@@H](C)[C@@](O)(O2)C(=O)C(=O)N2CCCC[C@H]2C(=O)O[C@H]([C@H](C)C[C@@H]2CC[C@@H](O)[C@H](OC)C2)C[C@@H](O)[C@H](C)/C=C(\C)[C@@H](O)[C@@H](OC)C(=NOCc2cn(CCOCCOCCOCCOCCOCCOCCC(=O)NCCCCn3nc(-c4ccc5oc(N)nc5c4)c4c(N)ncnc43)nn2)[C@H](C)C[C@H](C)/C=C/C=C/C=C/1C [Example 51] | 1 to 10 | 3.16 to 31.6 | 31.6 to 1000 |  |  |
| CO[C@H]1C[C@@H]2CC[C@@H](C)[C@@](O)(O2)C(=O)C(=O)N2CCCC[C@H]2C(=O)O[C@H]([C@H](C)C[C@@H]2CC[C@H](n3cc(COC(=O)NCCOCCOCCOCCOCCC(=O)NCc4cnc(N5CCN(c6ncc(C(=O)NCCCCn7nc(-c8cc9cc(O)ccc9[nH]8)c8c(N)ncnc87)cn6)CC5)nc4)nn3)[C@H](OC)C2)CC(=O)[C@H](C)/C=C(\C)[C@@H](O)[C@@H](OC)C(=O)[C@H](C)C[C@H](C)/C=C/C=C/C=C/1C [Example 186] | < 1 | 3.16 to 31.6 | 31.6 to 1000 |  |  |
| CO/N=C1/C[C@@H]([C@H](C)C[C@@H]2CC[C@H](n3cc(CCCC(=O)NCCOCCOCCOCCC(=O)NCCOCCOCCC(=O)NCCCCn4nc(-c5ccc6oc(N)nc6c5)c5c(N)ncnc54)nn3)[C@H](OC)C2)OC(=O)[C@@H]2CCCCN2C(=O)C(=O)[C@]2(O)O[C@@H](CC[C@H]2C)C[C@H](OC)/C(C)=C/C=C/C=C/[C@@H](C)C[C@@H](C)C(=O)[C@H](OC)[C@H](O)/C(C)=C/[C@H]1C [Example 169] | 10 to 1000 | > 1000 | > 1000 |  |  |
| CO[C@H]1C[C@@H]2CC[C@@H](C)[C@@](O)(O2)C(=O)C(=O)N2CCCC[C@H]2C(=O)O[C@H]([C@H](C)C[C@@H]2CC[C@H](n3cc(-c4cnc(N5CCN(c6ncc(C(=O)NCCOCCOCCOCCOCCC(=O)N7CCc8cc(Cn9nc(-c%10ccc%11oc(N)nc%11c%10)c%10c(N)ncnc%109)ccc8C7)cn6)CC5)nc4)nn3)[C@H](OC)C2)CC(=O)[C@H](C)/C=C(\C)[C@@H](O)[C@@H](OC)C(=O)[C@H](C)C[C@H](C)/C=C/C=C/C=C/1C [Example 117] | < 1 | > 1000 | > 1000 |  |  |
| CO[C@H]1C[C@@H]2CC[C@@H](C)[C@@](O)(O2)C(=O)C(=O)N2CCCC[C@H]2C(=O)O[C@H]([C@H](C)C[C@@H]2CC[C@@H](OCCCCc3cn(CCOCCOCCOCCOCCNC(=O)CCCC(=O)NCCCCn4nc(-c5ccc6oc(N)nc6c5)c5c(N)ncnc54)nn3)[C@H](OC)C2)CC(=O)[C@H](C)/C=C(\C)[C@@H](O)[C@@H](OC)C(=O)[C@H](C)C[C@H](C)/C=C/C=C/C=C/1C [Example 101] | < 1 | < 3.16 | 3.16 to 31.6 |  |  |
| CO[C@H]1C[C@@H]2CC[C@@H](C)[C@@](O)(O2)C(=O)C(=O)N2CCCC[C@H]2C(=O)O[C@H]([C@H](C)C[C@@H]2CC[C@@H](O)[C@H](OC)C2)C[C@@H](O)[C@H](C)/C=C(\C)[C@@H](O)[C@@H](OC)C(=NOCc2cn(CCOCCOCCOCCOCCOCCOCCC(=O)NCCCCn3nc(-c4cc5cc(O)ccc5[nH]4)c4c(N)ncnc43)nn2)[C@H](C)C[C@H](C)/C=C/C=C/C=C/1C [Example 93] | 1 to 10 | 3.16 to 31.6 | > 1000 |  |  |
| CO[C@H]1C[C@@H]2CC[C@@H](C)[C@@](O)(O2)C(=O)C(=O)N2CCCC[C@H]2C(=O)O[C@H]([C@H](C)C[C@@H]2CC[C@@H](OCc3cccc(-c4cnc(N5CCN(Cc6cn(CCOCCOCCOCCOCCC(=O)NCCCCn7nc(-c8ccc9oc(N)nc9c8)c8c(N)ncnc87)nn6)C(CO)C5)nc4)c3)[C@H](OC)C2)CC(=O)[C@H](C)/C=C(\C)[C@@H](O)[C@@H](OC)C(=O)[C@H](C)C[C@H](C)/C=C/C=C/C=C/1C (stereo partly drawn) [Example 24] | < 1 | < 3.16 | 3.16 to 31.6 |  |  |
| CO/N=C1/C[C@@H]([C@H](C)C[C@@H]2CC[C@H](n3cc(CCCC(=O)NCCOCCOCCOCCC(=O)NCCOCCOCCOCCC(=O)NCCCCn4nc(-c5cc6cc(O)ccc6[nH]5)c5c(N)ncnc54)nn3)[C@H](OC)C2)OC(=O)[C@@H]2CCCCN2C(=O)C(=O)[C@]2(O)O[C@@H](CC[C@H]2C)C[C@H](OC)/C(C)=C/C=C/C=C/[C@@H](C)C[C@@H](C)C(=O)[C@H](OC)[C@H](O)/C(C)=C/[C@H]1C [Example 172] | 10 to 1000 | > 1000 | > 1000 |  |  |
| CO/N=C1/C[C@@H]([C@H](C)C[C@@H]2CC[C@H](n3cc(COC(=O)NCCOCCOCCOCCC(=O)NCCOCCOCCC(=O)NCCCCn4nc(-c5ccc6oc(N)nc6c5)c5c(N)ncnc54)nn3)[C@H](OC)C2)OC(=O)[C@@H]2CCCCN2C(=O)C(=O)[C@]2(O)O[C@@H](CC[C@H]2C)C[C@H](OC)/C(C)=C/C=C/C=C/[C@@H](C)C[C@@H](C)C(=O)[C@H](OC)[C@H](O)/C(C)=C/[C@H]1C [Example 151] | 10 to 1000 | 31.6 to 1000 | > 1000 |  |  |
